Common to all, as to type: in vivo, mouse
The test system of experiment [1] is DIO mice. The experiment can be described thus: Chronic GIPA-1 study: fasting blood glucose, plasma insulin and HOMA-IR in DIO mice. As to conditions: 4 h fasted, liraglutide 0.2 mg/kg/day SC, GIPA-1 ~4.5 mg/kg/day minipump, n = 10, vs vehicle. As to the method:
23-week-old male C57BL/6JRj mice (n = 40), fed a HFD (SSNIFF® diet #12492[60% fat, 20% protein, 20% carbohydrate]) for 14 weeks, were distributed into 4 test groups and received daily either vehicle, liraglutide (0.2 mg/kg/day), GIPA-1 (~4.5 mg/kg/day) or liraglutide + GIPA-1 for 4 weeks while still maintained on HFD. GIPA-1 was delivered using minipumps in order to achieve sufficient GIPR antagonism based on the properties of this peptide (Fig 2A). Liraglutide was dissolved in phosphate-buffered saline (PBS) plus 0.1% bovine serum albumin (BSA) (vehicle 1) and GIPA-1 in DMSO/propylene glycol (50/50 volume per volume) (vehicle 2). […] Fasted (4 hrs) blood glucose and insulin levels were measured on study day -3, 14 and 27. […] Blood glucose was measured before their daily dosing and at 0, 15, 30 60, 120, 180 min after glucose administration. Plasma insulin was measured at 0 and 15 min. Whole body weight and food intake were measured throughout the study period. […]
Fasting blood glucose was measured using a BIOSEN c-Line glucose meter (EKF-Diagnostics), insulin was measured using the Meso Scale Diagnostics platform, TG and TC were measured using commercial kits (Roche Diagnostics) on the Cobas C-501 autoanalyzer (Roche), and FFA levels were measured using a Wako Chemicals kit on the Cobas C-501 autoanalyzer, all according to the manufacturers’ instructions. […]

The test system of experiment [2] is DIO mice. The experiment can be described thus: Chronic GIPA-2 study: insulin tolerance test (ITT) in DIO mice. Particulars: day 24; insulin 0.5 U/kg ip one hour after daily dose; liraglutide 0.2 mg/kg SC, GIPA-2 10 mg/kg SC; n = 10. The protocol: (§1) For studying the chronic effects of GIPA-2, male C57BL/6JRj mice (n = 40) were fed a HFD (SSNIFF® diet #12492) for 43 weeks. DIO mice were randomized (n = 10 per group) based on baseline blood glucose and body weight. Liraglutide was dissolved in PBS plus 0.1% BSA (Vehicle1) and GIPA-2 in PBS (vehicle 2). Mice received one of the following four treatments daily for 28 days while still maintained on HFD: (1) vehicle 1 (SC) and vehicle 2 (SC); (2) 0.2 mg/kg liraglutide (SC) and vehicle 2; (3) vehicle 1 (SC) and 10 mg/kg GIPA-2 (SC); and (4) 0.2 mg/kg liraglutide (SC) plus 10 mg/kg GIPA-2 (SC). […] Fasted (4 hrs) blood glucose and insulin were measured on study day -4, 10 and 26. […] Blood glucose was measured before their daily dosing and at 0, 15, 30 60, 120, 180 and 240 min after glucose administration. […] Blood glucose was measured before their daily dosing and at 0, 15, 30 60, 120, 180 min after glucose administration. […]
(§2) Fig 3 Effects of GIPA-1 and GIPA-2 on oral glucose tolerance and insulin responses in DIO mice. […] Statistical analysis was calculated using two-way ANOVA with Tukey’s post-hoc test and one-way ANOVA with Dunnett’s post-hoc test. *: p< 0.05, **: p < 0.01, ***: p < 0.001, ****: p<0.0001 compared to vehicle.

Experiment [3] concerns DIO mice. The experiment can be described thus: Chronic GIPA-2 study: OGTT in DIO mice. As to conditions: day 17; oral glucose 2 g/kg one hour after daily dose; liraglutide 0.2 mg/kg SC, GIPA-2 10 mg/kg SC; n = 10. The protocol: as §1, §2

With liraglutide, the fasting blood glucose entry in the experiment on DIO mice [1] (days 14 and 27) was “significant reductions for the duration of the study”. The fasting plasma insulin entry in the experiment on DIO mice [1] is “reduced in both the liraglutide and combination groups. This was significant for the combination, but not for liraglutide monotherapy”. For the same substance, the “insulin sensitivity (ITT)” value with DIO mice [2] is “improved insulin sensitivity produced by liraglutide”. For the same substance, the “glucose excursion in OGTT” value in the experiment with DIO mice [3] is “beneficial glucose lowering effects of liraglutide”.

These data come from paper PMC8011784, “Chronic peptide-based GIP receptor inhibition exhibits modest glucose metabolic changes in mice when administered either alone or combined with GLP-1 agonism” (PLoS ONE, 2021).
